From patent US10377753B2, “Substituted 4-azaindoles and their use as GluN2B receptor modulators” (Janssen Pharmaceutica NV, priority 2015, dated 2019) come the findings set out here.

Where a name gives a salt, the structure may show the parent alone.

The assay deals with cloned human NR1/NR2B ion channels (Homo sapiens (Human), UniProt Q05586+Q13224). The assay can be described thus: HNR2BC: effects of test articles on cloned human NR1/NR2B ion channels expressed in mammalian cells (FLIPR calcium flux). The format is cell-based. The note with it: Table 5. The gist of the method:
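Compounds were added to dye-loaded cells for 5 min with fluorescence monitored for agonism, followed by co-agonists (glutamate ~EC80, glycine 10 μM saturating) for 5 min. Cells stably expressed inducible human NR1/NR2B, and the buffer was pH 7.4. The FLIPR Ca2+ flux signal was normalized against control wells.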
(Calcium flux is commonly read through the fluorescence of an indicator in the cells.)

Setting [1] is: cloned human NR1/NR2B ion channels.

cloned human NR1/NR2B ion channels, sequence (Q13224 27-1484, other chains not shown): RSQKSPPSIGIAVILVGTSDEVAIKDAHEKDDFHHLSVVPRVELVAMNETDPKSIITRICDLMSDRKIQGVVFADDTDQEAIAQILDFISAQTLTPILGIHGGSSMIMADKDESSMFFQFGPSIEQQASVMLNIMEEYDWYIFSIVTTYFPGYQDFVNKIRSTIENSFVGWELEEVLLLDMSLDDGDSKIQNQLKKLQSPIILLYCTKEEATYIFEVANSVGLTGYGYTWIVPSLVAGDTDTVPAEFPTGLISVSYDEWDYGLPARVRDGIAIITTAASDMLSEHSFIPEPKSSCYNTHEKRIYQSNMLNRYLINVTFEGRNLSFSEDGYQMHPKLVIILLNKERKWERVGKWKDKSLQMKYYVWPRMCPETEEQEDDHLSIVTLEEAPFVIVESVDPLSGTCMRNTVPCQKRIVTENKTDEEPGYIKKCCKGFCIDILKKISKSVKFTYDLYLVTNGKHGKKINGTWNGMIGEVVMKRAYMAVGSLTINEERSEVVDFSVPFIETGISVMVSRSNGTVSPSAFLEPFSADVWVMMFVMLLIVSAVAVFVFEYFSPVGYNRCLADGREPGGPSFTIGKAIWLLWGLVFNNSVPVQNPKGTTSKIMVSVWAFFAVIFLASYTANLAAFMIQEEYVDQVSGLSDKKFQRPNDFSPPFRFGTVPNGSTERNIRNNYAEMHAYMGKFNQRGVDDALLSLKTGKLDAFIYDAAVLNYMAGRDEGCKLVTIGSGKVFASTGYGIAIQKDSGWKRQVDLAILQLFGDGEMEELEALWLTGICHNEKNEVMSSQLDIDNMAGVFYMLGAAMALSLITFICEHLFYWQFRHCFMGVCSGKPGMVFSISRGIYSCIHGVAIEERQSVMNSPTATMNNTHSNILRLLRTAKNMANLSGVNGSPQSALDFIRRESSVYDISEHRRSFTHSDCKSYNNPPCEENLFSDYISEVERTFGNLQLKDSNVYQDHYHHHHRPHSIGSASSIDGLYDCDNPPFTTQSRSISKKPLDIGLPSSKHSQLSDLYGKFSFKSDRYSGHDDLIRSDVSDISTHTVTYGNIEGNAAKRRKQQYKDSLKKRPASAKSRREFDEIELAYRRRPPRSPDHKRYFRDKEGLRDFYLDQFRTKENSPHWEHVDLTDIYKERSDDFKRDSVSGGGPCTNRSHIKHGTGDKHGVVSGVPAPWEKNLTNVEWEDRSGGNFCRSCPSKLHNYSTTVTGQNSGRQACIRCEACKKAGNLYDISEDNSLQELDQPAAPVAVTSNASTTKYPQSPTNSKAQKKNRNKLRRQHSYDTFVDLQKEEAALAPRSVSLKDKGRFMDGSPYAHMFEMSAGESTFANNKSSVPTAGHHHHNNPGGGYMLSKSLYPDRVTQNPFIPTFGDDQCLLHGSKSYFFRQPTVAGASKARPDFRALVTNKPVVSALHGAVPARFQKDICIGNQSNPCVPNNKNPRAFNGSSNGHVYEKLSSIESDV

Consider `Cc1cc(-c2cnc3ccn(CC4CO4)c3c2)ccc1F` (racemic) [Example 180, (R/S)-6-(4-Fluoro-3-methyl-phenyl)-1-(oxiran-2-ylmethyl)pyrrolo[3,2-b]pyridine trifluoroacetate salt], for which the IC50 (cloned human NR1/NR2B) is 794 nM.

As for `Cc1cccc(-c2cnc3c(F)cn(CC(=O)N(C)C)c3c2)c1` [Example 496, 2-[3-Fluoro-6-(m-tolyl)pyrrolo[3,2-b]pyridin-1-yl]-N,N-dimethyl-acetamide], under setting [1], the IC50 is 79.4 nM.

In the case of `Cc1c(-c2cnc3ccn(CC(=O)N4CCC4)c3c2)cccc1C(F)(F)F` [Example 167, 1-(Azetidin-1-yl)-2-[6-[2-methyl-3-(trifluoromethyl)phenyl]pyrrolo[3,2-b]pyridin-1-yl]ethanone trifluoroacetate salt], under “cloned human NR1/NR2B”, the half-inhibitory concentration (IC50) was 39.8 nM.

Turning to `Cc1ccc(-c2cnc3c(Cl)cn(CC(=O)N4CCC4)c3c2)s1` [Example 410, 1-(Azetidin-1-yl)-2-[3-chloro-6-(5-methyl-2-thienyl)pyrrolo[3,2-b]pyridin-1-yl]ethanone], the IC50 under setting [1] was 316 nM.

On to `O=C(Cn1cc(Cl)c2ncc(-c3cc(F)c(F)c(F)c3)cc21)N1CC(F)C1` [Example 39, 2-[3-Chloro-6-(3,4,5-trifluorophenyl)pyrrolo[3,2-b]pyridin-1-yl]-1-(3-fluoroazetidin-1-yl)ethanone], for which the IC50 (cloned human NR1/NR2B) is 31.6 nM.

Take `O=C(Cn1cc(Cl)c2ncc(-c3ccc(F)cc3)cc21)N1CCC1` [Example 3, 1-(Azetidin-1-yl)-2-[3-chloro-6-(4-fluorophenyl)pyrrolo[3,2-b]pyridin-1-yl]ethanone]: the pIC50 (cloned human NR1/NR2B) amounted to 7.6.

For the molecule `Cc1cn(CC(=O)N2CC(F)(F)C2)c2cc(-c3ccccc3)cnc12` [Example 579, 1-(3,3-Difluoroazetidin-1-yl)-2-(3-methyl-6-phenyl-pyrrolo[3,2-b]pyridin-1-yl)ethanone], the half-inhibitory concentration (IC50) under setting [1] was 63.1 nM.

As to `Cc1cc(-c2cnc3c(C)cn(CC(=O)N4CCC4)c3c2)ccc1F` [Example 169, 1-(Azetidin-1-yl)-2-[6-(4-fluoro-3-methyl-phenyl)-3-methyl-pyrrolo[3,2-b]pyridin-1-yl]ethanone trifluoroacetate salt], the IC50 (cloned human NR1/NR2B) was 200 nM.

For `Cc1cccc(-c2cnc3ccn(CC(=O)N4CC(F)C4)c3c2)c1` [Example 266, 1-(3-Fluoroazetidin-1-yl)-2-[6-(m-tolyl)pyrrolo[3,2-b]pyridin-1-yl]ethanone trifluoroacetate salt], the 50% inhibitory concentration (IC50) (cloned human NR1/NR2B) was 126 nM.

With `Cc1cc(-c2cnc3c(Cl)cn(CC(=O)C4CCC4)c3c2)ccc1F` [Example 241, 2-[3-Chloro-6-(4-fluoro-3-methyl-phenyl)pyrrolo[3,2-b]pyridin-1-yl]-1-cyclobutyl-ethanone], the IC50 (cloned human NR1/NR2B) was 5010 nM.

`O=C(Cn1ccc2ncc(-c3cccs3)cc21)N1CC(F)C1` [Example 277, 1-(3-Fluoroazetidin-1-yl)-2-[6-(2-thienyl)pyrrolo[3,2-b]pyridin-1-yl]ethanone]: for the setting “cloned human NR1/NR2B”, the IC50 is 3160 nM.

As for `Cc1cc(F)ccc1-c1cnc2ccn(CC(=O)N3CCC3)c2c1` [Example 163, 1-(Azetidin-1-yl)-2-[6-(4-fluoro-2-methyl-phenyl)pyrrolo[3,2-b]pyridin-1-yl]ethanone trifluoroacetate salt], the IC50 (cloned human NR1/NR2B) is 79.4 nM.

Consider `Cc1cccc(-c2cnc3c(Br)cn(CC(=O)N4CCOCC4)c3c2)c1` [Example 24, 2-[3-Bromo-6-(m-tolyl)pyrrolo[3,2-b]pyridin-1-yl]-1-morpholino-ethanone], for which the IC50 (cloned human NR1/NR2B) was 100 nM.

On to `Cc1cccc(-c2cnc3c(Cl)cn(CC(=O)N4CCC4)c3c2)c1` [Example 8, 1-(Azetidin-1-yl)-2-[3-chloro-6-(m-tolyl)pyrrolo[3,2-b]pyridin-1-yl]ethanone], for which the IC50 (cloned human NR1/NR2B) is 31.6 nM.

For `CC(C)(C)C(=O)Cn1ccc2ncc(-c3cccc(C(F)F)c3)cc21` [Example 144, 1-[6-[3-(Difluoromethyl)phenyl]pyrrolo[3,2-b]pyridin-1-yl]-3,3-dimethyl-butan-2-one], the IC50 (cloned human NR1/NR2B) was 2000 nM.

Usually IC50 stands for the concentration at which inhibition is half-maximal. Broadly, the pIC50 is the negative decadic logarithm of the IC50, by convention in mol/L.
